Data as given in ChEMBL document CHEMBL3992552, “Mechanisms of action and structure-activity relationships of cytotoxic flavokawain derivatives” (Bioorg Med Chem, 2017).
Calls of active or inactive are those of the source. The rule behind the calls is not given here.

Columns and labels:
[1] = Selectivity index, ratio of IC50 for human fibroblasts to IC50 for human HCT116 cells
MCF7 [2] = assay: Induction of apoptosis in human MCF7 cells harboring wild-type p53 assessed as upregulation of cyclinB1 measured after 18 hrs by Hoechst staining based assay; assay type: functional, cell-based
NCI-H727 [3] = assay: Cytotoxicity against human NCI-H727 cells assessed as cell viability after 48 hrs by Hoechst 33342 staining based assay; assay type: functional; details: NCI-H727, 48 h
MDA-MB-231 [4] = assay: Cell cycle arrest in human MDA-MB-231 cells harboring p53 mutant assessed as accumulation at S phase at 25 uM measured after 48 hrs by Hoechst/BrdU staining based fluorescence assay (reference value: 42.2%); assay type: functional
HCT-116 [5] = assay: Induction of apoptosis in human HCT116 cells harboring wild-type p53 assessed as increase in cleaved caspase3 at 2 times IC50 after 48 hrs by Hoechst staining based assay; assay type: functional, cell-based
HaCaT [6] = assay: Cell cycle arrest in human HaCaT cells harboring […] p53 assessed as accumulation at S phase at 10 uM measured after 48 hrs by Hoechst/BrdU staining based fluorescence assay (reference value: 52.3%); assay type: functional
HaCaT [7] = assay: Cell cycle arrest in human HaCaT cells harboring […] p53 assessed as mitotic index at 10 uM measured after 48 hrs by Hoechst staining based fluorescence assay (reference value: 2.6); assay type: functional
HaCaT [8] = assay: Cytotoxicity against human HaCaT cells assessed as cell survival at 50 uM after 48 hrs by Hoechst 33342 staining based assay relative to control; assay type: functional; details: read-out: Survival
HCT-116 [9] = assay: Cell cycle arrest in human HCT116 cells harboring wild-type p53 assessed as mitotic index at 25 uM measured after 48 hrs by Hoechst staining based fluorescence assay (reference value: 2.3); assay type: functional
[10] = Selectivity index, ratio of IC50 for human fibroblasts to IC50 for human RL cells
HCT-116 [11] = assay: Cytotoxicity against human HCT116 cells assessed as cell viability after 48 hrs by Hoechst 33342 staining based assay; assay type: functional; details: HCT-116, 48 h
Caco-2 [12] = assay: Cell cycle arrest in human Caco2 cells assessed as accumulation at S phase at 25 uM measured after 48 hrs by Hoechst/BrdU staining based fluorescence assay (reference value: […]); assay type: functional
HCT-116 [13] = assay: Induction of apoptosis in human HCT116 cells harboring wild-type p53 assessed as increase in late apoptosis at 2 times IC50 after 48 hrs by YoPro/propidium iodide/Hoechst staining based assay; assay type: functional, cell-based
Huh-7 [14] = assay: Cell cycle arrest in human HuH7 cells assessed as accumulation at S phase at 10 uM measured after 48 hrs by Hoechst/BrdU staining based fluorescence assay (reference value: 44%); assay type: functional
HaCaT [15] = assay: Cell cycle arrest in human HaCaT cells harboring […] p53 assessed as accumulation at S phase at 25 uM measured after 48 hrs by Hoechst/BrdU staining based fluorescence assay (reference value: 52.3%); assay type: functional
Caco-2 [16] = assay: Cell cycle arrest in human Caco2 cells assessed as accumulation at S phase at 10 uM measured after 48 hrs by Hoechst/BrdU staining based fluorescence assay (reference value: […]); assay type: functional
MDA-MB-231 [17] = assay: Cell cycle arrest in human MDA-MB-231 cells harboring p53 mutant assessed as mitotic index at 10 uM measured after 48 hrs by Hoechst staining based fluorescence assay (reference value: 2.1); assay type: functional
PC-3 [18] = assay: Cytotoxicity against human PC3 cells assessed as cell viability after 48 hrs by Hoechst 33342 staining based assay; assay type: functional; details: PC-3, 48 h
HCT-116 [19] = assay: Cell cycle arrest in human HCT116 cells assessed as accumulation at G1/S phase by Hoechst staining based fluorescence assay; assay type: functional
PC-3 [20] = assay: Induction of apoptosis in human PC3 cells harboring p53 mutant assessed as increase in cleaved caspase3 at 2 times IC50 after 48 hrs by Hoechst staining based assay; assay type: functional, cell-based
NCI-H727 [21] = assay: Cell cycle arrest in human NCI-H727 cells assessed as accumulation at G1/S phase by Hoechst staining based fluorescence assay; assay type: functional
[22] = Selectivity index, ratio of IC50 for human fibroblasts to IC50 for human MDA-MB-231 cells
[23] = Selectivity index, ratio of IC50 for human fibroblasts to IC50 for human HuH7 cells
MCF7 [24] = assay: Induction of apoptosis in human MCF7 cells harboring wild-type p53 assessed as increase in late apoptosis at 2 times IC50 after 24 hrs by YoPro/propidium iodide/Hoechst staining based assay; assay type: functional, cell-based
[25] = Selectivity index, ratio of IC50 for human fibroblasts to IC50 for human NCI-H727 cells
PC-3 [26] = assay: Cell cycle arrest in human PC3 cells harboring p53 mutant assessed as mitotic index at 10 uM measured after 48 hrs by Hoechst staining based fluorescence assay (reference value: 2.5); assay type: functional
MDA-MB-231 [27] = assay: Induction of apoptosis in human MDA-MB-231 cells harboring p53 mutant assessed as increase in early apoptosis at 2 times IC50 after 24 hrs by YoPro/propidium iodide/Hoechst staining based assay; assay type: functional, cell-based
[28] = Selectivity index, ratio of IC50 for human fibroblasts to IC50 for human HaCaT cells
Huh-7 [29] = assay: Cytotoxicity against human HuH7 cells assessed as cell survival at 50 uM after 48 hrs by Hoechst 33342 staining based assay relative to control; assay type: functional; details: Huh-7, 48 h, read-out: Survival
Huh-7 [30] = assay: Cell cycle arrest in human HuH7 cells assessed as mitotic index at 10 uM measured after 48 hrs by Hoechst staining based fluorescence assay (reference value: 2.2); assay type: functional
Caco-2 [31] = assay: Cell cycle arrest in human Caco2 cells assessed as mitotic index at 10 uM measured after 48 hrs by Hoechst staining based fluorescence assay (reference value: 3.6); assay type: functional
HaCaT [32] = assay: Cell cycle arrest in human HaCaT cells harboring […] p53 assessed as mitotic index at 25 uM measured after 48 hrs by Hoechst staining based fluorescence assay (reference value: 2.6); assay type: functional
PC-3 [33] = assay: Cell cycle arrest in human PC3 cells harboring p53 mutant assessed as accumulation at S phase at 25 uM measured after 48 hrs by Hoechst/BrdU staining based fluorescence assay (reference value: 40.8%); assay type: functional
MDA-MB-231 [34] = assay: Induction of apoptosis in human MDA-MB-231 cells harboring p53 mutant assessed as increase in cleaved caspase3 at 2 times IC50 after 24 hrs by Hoechst staining based assay; assay type: functional, cell-based
NCI-H727 [35] = assay: Cytotoxicity against human NCI-H727 cells assessed as cell survival at 50 uM after 48 hrs by Hoechst 33342 staining based assay relative to control; assay type: functional; details: NCI-H727, 48 h, read-out: Survival
HCT-116 [36] = assay: Cytotoxicity against human HCT116 cells assessed as cell survival at 50 uM after 48 hrs by Hoechst 33342 staining based assay relative to control; assay type: functional; details: HCT-116, 48 h, read-out: Survival
HCT-116 [37] = assay: Induction of apoptosis in human HCT116 cells harboring wild-type p53 assessed as upregulation of p21 measured after 48 hrs by Hoechst staining based fluorescence assay; assay type: functional, cell-based
MCF7 [38] = assay: Induction of apoptosis in human MCF7 cells harboring wild-type p53 assessed as upregulation of p21 measured after 48 hrs by Hoechst staining based fluorescence assay; assay type: functional, cell-based

Compound | Ratio IC50 [1] | Activity (MCF7 [2]) | IC50 (NCI-H727 [3]) [µM] | Activity (MDA-MB-231 [4]) | Activity (HCT-116 [5]) | Activity (HaCaT [6]) | viability at 50 µM (HaCaT [8]) [%] | Activity_index (HCT-116 [9]) | Ratio IC50 [10] | IC50 (HCT-116 [11]) [µM] | Activity (Caco-2 [12]) [%] | Activity (HCT-116 [13]) | Activity (Huh-7 [14]) | Activity (HaCaT [15]) | Activity (Caco-2 [16]) [%] | IC50 (PC-3 [18]) [µM] | Activity (HCT-116 [19]) | Activity (PC-3 [20]) | Activity (MCF7 [24]) | Activity_index (PC-3 [26]) | other results
COc1cc(OC)c(C(=O)/C=C/c2ccc(F)cc2)c(OC)c1 | >8.1 | Active | 5.5 | 10% | Active | 20% | 21 | 0.4 | >7.8 | 6.2 | 13 | Active | 44% | 0.4% | 39 | 5.5 | Active | Active | Active | 14.6 | Activity_index (HaCaT [7]): 10.7; Activity_index (MDA-MB-231 [17]): 22; Activity (NCI-H727 [21]): Active; Ratio IC50 [22]: >4.7; Ratio IC50 [23]: >3.4; Ratio IC50 [25]: >9.1; Activity (MDA-MB-231 [27]): Active; Ratio IC50 [28]: >6.6; viability at 50 µM (Huh-7 [29]): 8%; Activity_index (Huh-7 [30]): 4.7; Activity_index (Caco-2 [31]): 32; Activity_index (HaCaT [32]): 0; Activity (PC-3 [33]): 0.4%; Activity (MDA-MB-231 [34]): Active; viability at 50 µM (NCI-H727 [35]): 4%; viability at 50 µM (HCT-116 [36]): 1%; Activity (HCT-116 [37]): Active; Activity (MCF7 [38]): Active
COc1cc(O)c(C(=O)/C=C/c2ccccc2OC)c(OC)c1 | 4 | Active | 11 | inactive | Active | 49% | 30 | 1.8 | 3.6 | 9.2 | 37 | Active | inactive | 29% | 46 | 9.6 | Active | Active | Active | 2.9 | Activity_index (HaCaT [7]): 3.1; Activity (MDA-MB-231 [17]): inactive; Activity (NCI-H727 [21]): Active; Ratio IC50 [25]: 3.3; Ratio IC50 [28]: 3.3; viability at 50 µM (Huh-7 [29]): 39%; Activity (Huh-7 [30]): inactive; Activity_index (Caco-2 [31]): 6.8; Activity_index (HaCaT [32]): 8.4; Activity (PC-3 [33]): 24%; viability at 50 µM (NCI-H727 [35]): 11%; viability at 50 µM (HCT-116 [36]): 8%; Activity (HCT-116 [37]): Active; Activity (MCF7 [38]): Active
COc1cc(O)c(C(=O)/C=C/c2ccc(F)cc2)c(OC)c1 | >4 | Active | > 20 | inactive | Active | inactive | 36 | 0.7 | >5.4 | 12.4 | 30 | Active | inactive | inactive | 49 | 13.2 | Active | Active | Active | 2.9 | Activity (HaCaT [7]): inactive; Activity (MDA-MB-231 [17]): inactive; viability at 50 µM (Huh-7 [29]): 66%; Activity (Huh-7 [30]): inactive; Activity_index (Caco-2 [31]): 6.3; Activity (HaCaT [32]): inactive; Activity (PC-3 [33]): 34%; viability at 50 µM (NCI-H727 [35]): 54%; viability at 50 µM (HCT-116 [36]): 25%; Activity (HCT-116 [37]): Active; Activity (MCF7 [38]): Active
